This note sets out measurements from PubChem BioAssay (NCI).

Test systems include MDA-MB-435; UACC-257 melanoma; HOP-62 NSCLC; OVCAR-4 ovarian; 786-0 renal; MDA-N; HOP-92 NSCLC; A549 NSCLC; COLO 205 colon; SF-268 CNS; SF-539 CNS.
Holding throughout (test): growth of human tumour cells (NCI), 48 h

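Compound exposure: 48 hours, 5 concentrations, 96-well plates. TGI: total growth inhibition.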

In the case of `Cc1cn([C@H]2C[C@](C)(CO)N(C)O2)c(=O)[nH]c1=O`, the TGI with MDA-MB-435, in the test with UACC-257 melanoma, in the test on HOP-62 NSCLC, in the test with OVCAR-4 ovarian, with 786-0 renal and with MDA-N was greater than 100 µM each time. Moreover, the TGI in the test with HOP-92 NSCLC, in the test on A549 NSCLC, with COLO 205 colon and with SF-268 CNS was greater than 100 µM each time.

Turning to `COC(=O)C1(Cc2ccc3c(c2)CCC3)Cc2ccccc2C1=O` (stereo not drawn), the TGI in the test on SF-539 CNS is 32.9 µM; in the test on MDA-MB-435, 18 µM; in the test with UACC-257 melanoma, 76 µM; in the test with HOP-62 NSCLC, 59.3 µM; in the test on OVCAR-4 ovarian, greater than 100 µM; with 786-0 renal it was greater than 100 µM. The TGI is 13.3 µM in the test on MDA-N, greater than 100 µM in the test with A549 NSCLC, 30.4 µM in the test on COLO 205 colon and 70.7 µM in the test with SF-268 CNS.

As for `CCN(CC)CCNc1ccc2ncn3c4cc(OC)c(OC)c(=O)c4c(O)c1c23`, the TGI was 29 µM in the test on SF-539 CNS; 26.9 µM with MDA-MB-435; 44.2 µM in the test on UACC-257 melanoma; 28.2 µM in the test with HOP-62 NSCLC; 24.4 µM in the test with OVCAR-4 ovarian; 26.4 µM in the test on 786-0 renal. Also, the TGI with HOP-92 NSCLC was 24.7 µM; with A549 NSCLC it was 35.1 µM; in the test with COLO 205 colon, 17.4 µM; in the test with SF-268 CNS, 17.6 µM.

As for `O=C(c1ccccc1)N1C(=S)N=C(Nc2ccccc2)C1=Nc1ccccc1`, the TGI in the test with SF-539 CNS, in the test on MDA-MB-435, with UACC-257 melanoma, in the test with HOP-62 NSCLC, with OVCAR-4 ovarian and in the test on 786-0 renal was greater than 100 µM each time. In addition, the TGI in the test with MDA-N, in the test with A549 NSCLC, with COLO 205 colon and in the test on SF-268 CNS was greater than 100 µM in each case.

In the case of `CCOC(=O)C1(C(=O)OCC)CCCN1C(=O)[C@H](CNC(=O)OC(C)(C)C)NC(=O)OCc1ccccc1`, the TGI in the test with SF-539 CNS, in the test with MDA-MB-435, in the test with UACC-257 melanoma, with HOP-62 NSCLC, in the test with OVCAR-4 ovarian and in the test with 786-0 renal was greater than 100 µM in each case. In addition, the TGI in the test on MDA-N, in the test with A549 NSCLC, with COLO 205 colon and in the test with SF-268 CNS was greater than 100 µM in each case.

On to `COc1cc(CNc2nc3cc(C(F)(F)F)ccc3nc2-c2ccccc2)cc(OC)c1OC`, for which the TGI with SF-539 CNS, with MDA-MB-435, in the test with UACC-257 melanoma, in the test on HOP-62 NSCLC, in the test with 786-0 renal and with MDA-N was greater than 100 µM in each case. Also, the TGI was greater than 100 µM in the test on A549 NSCLC, 37.3 µM in the test with COLO 205 colon and greater than 100 µM in the test with SF-268 CNS.

Regarding `O/C(=C\c1nc2ccccc2nc1NC12CC3CC(CC(C3)C1)C2)c1ccc(Br)cc1`, the TGI with SF-539 CNS, in the test with MDA-MB-435, in the test with UACC-257 melanoma, in the test with HOP-62 NSCLC, in the test with OVCAR-4 ovarian and with 786-0 renal was greater than 10 µM in each case. In addition, the TGI in the test with MDA-N, with A549 NSCLC, with COLO 205 colon and with SF-268 CNS was greater than 10 µM throughout.

Take `S=C1CC(c2ccccc2)Sc2ccc(Cl)cc2N1` (stereo not drawn): the TGI was greater than 100 µM in the test with MDA-MB-435; greater than 100 µM in the test with UACC-257 melanoma; greater than 100 µM in the test with HOP-62 NSCLC; greater than 100 µM in the test on OVCAR-4 ovarian; 59.5 µM in the test on 786-0 renal; greater than 100 µM in the test on MDA-N. The TGI in the test with A549 NSCLC, in the test with COLO 205 colon and in the test with SF-268 CNS was greater than 100 µM throughout.

In the case of `COc1cc(CC(C)N)ccc1O` (stereo not drawn), the TGI in the test with SF-539 CNS, in the test on UACC-257 melanoma, in the test with HOP-62 NSCLC, in the test with OVCAR-4 ovarian, in the test with 786-0 renal and in the test with MDA-N was greater than 100 µM each time. The TGI with HOP-92 NSCLC, in the test with A549 NSCLC, in the test with COLO 205 colon and with SF-268 CNS was greater than 100 µM throughout.

`O=C(O)c1c2c(cc3c1CC1(Cc4ccccc4C1=O)C3)CCC2` (stereo not drawn): the TGI is greater than 95.4 µM with SF-539 CNS; 16 µM in the test on MDA-MB-435; greater than 100 µM in the test with UACC-257 melanoma; greater than 100 µM in the test on HOP-62 NSCLC; greater than 100 µM in the test on OVCAR-4 ovarian; greater than 100 µM with 786-0 renal. The TGI is greater than 91.6 µM in the test with HOP-92 NSCLC, greater than 100 µM with A549 NSCLC, 54.6 µM in the test with COLO 205 colon and greater than 100 µM in the test on SF-268 CNS.

For `O=C(O)CSC(NC(=O)C(C(F)(F)F)C(F)(F)F)(C(F)(F)F)C(F)(F)F`, the TGI with SF-539 CNS, in the test with MDA-MB-435, in the test with UACC-257 melanoma, in the test with 786-0 renal, in the test on MDA-N and in the test on A549 NSCLC was greater than 100 µM in each case. Besides, the TGI in the test on COLO 205 colon and with SF-268 CNS was greater than 100 µM each time.

Consider `CCOC(=O)C1CN(C2CC2)CCC1=O` (stereo not drawn), for which the TGI with MDA-MB-435, in the test with UACC-257 melanoma, in the test with HOP-62 NSCLC, in the test with OVCAR-4 ovarian, in the test with 786-0 renal and in the test with MDA-N was greater than 100 µM in each case. For the same compound, the TGI in the test with A549 NSCLC, with COLO 205 colon and with SF-268 CNS was greater than 100 µM throughout.

Take `CC1=CC(=O)CC2(C)CCC(C(C)CC(=O)CC(C)C)CC12` (stereo not drawn): the TGI in the test on SF-539 CNS is 30 µM; in the test with MDA-MB-435, 39 µM; in the test on UACC-257 melanoma, 64.1 µM; in the test on OVCAR-4 ovarian, greater than 100 µM; with 786-0 renal, 31 µM; in the test on HOP-92 NSCLC, greater than 100 µM. The TGI in the test with A549 NSCLC is 34.8 µM; in the test on COLO 205 colon, 31.8 µM; with SF-268 CNS, greater than 100 µM.

In the case of `CCCCC/C(C=O)=C\c1ccccc1`, the TGI with SF-539 CNS, with MDA-MB-435, in the test on UACC-257 melanoma, in the test with HOP-62 NSCLC, in the test on OVCAR-4 ovarian and with 786-0 renal was greater than 100 µM in each case. In addition, the TGI with HOP-92 NSCLC, with COLO 205 colon and with SF-268 CNS was greater than 100 µM each time.
